Literature values as cited in patent US20240325474A1 (priority 2023, published 2024).
Values after ≈ are worked out from the molar mass of the structure shown.

Legend:
SARS-COV-2 = conditions: Calu-3 cells
[1] = test system: Calu-3 lung epithelia cell lines

C=C1CC[C@@H]2[C@](C)(CO)[C@H](O)CC[C@@]2(C)[C@@H]1C/C=C1/C(=O)OC[C@H]1O [andrographolide]
IC50 (SARS-COV-2): 34 nM
CC50 [1]: 58.03 µg/mL (≈ 166 µM)
